12 molecules from PubChem BioAssay (NCI) can be followed below.

Each structure is given as a SMILES string.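 How tested: cells in 96-well plates exposed to compound for 48 hours at five concentrations. TGI: concentration producing complete growth inhibition.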 Bounds are passed on as bounds.

Some test systems named below: OVCAR-5 ovarian; TK-10 renal; COLO 205 colon; NCI/ADR-RES ovarian; BT-549 breast; MDA-MB-231 breast; SK-OV-3 ovarian; OVCAR-8 ovarian; CAKI-1 renal; 786-0 renal; A498 renal.
Test in all cases: growth of human tumour cells (NCI), 48 h

Turning to `C=CC[C@@]1(C)CCCCCCCCC[C@@](C)(CC=C)C1=O`, the TGI in the test on OVCAR-5 ovarian was more than 100 µM; with TK-10 renal it was more than 100 µM; in the test with COLO 205 colon it was 42.3 µM; in the test with NCI/ADR-RES ovarian, more than 100 µM; with BT-549 breast it was 62.3 µM; in the test with MDA-MB-231 breast it was 80.9 µM. In addition, the TGI is more than 100 µM in the test with SK-OV-3 ovarian; 57.9 µM with OVCAR-8 ovarian; more than 100 µM in the test with CAKI-1 renal; more than 100 µM with 786-0 renal; 36.4 µM with A498 renal.

With `C=CCNC1=C2C[C@@H](C)C[C@@H](OC)[C@H](OC(=O)CN)[C@H](C)/C=C(\C)[C@@H](OC(N)=O)[C@H](OC)/C=C\C=C(/C)C(=O)NC(=CC1=O)C2=O`, the TGI with OVCAR-5 ovarian is 25 µM; with TK-10 renal it was 14.2 µM; in the test with COLO 205 colon it was 5.23 µM; in the test on NCI/ADR-RES ovarian it was more than 100 µM; with BT-549 breast, 28.3 µM; with MDA-MB-231 breast, 15.6 µM. The TGI in the test on SK-OV-3 ovarian was 12.5 µM; in the test with OVCAR-8 ovarian, 18.3 µM; with CAKI-1 renal it was 18.1 µM; with 786-0 renal, 20.7 µM; with A498 renal, 28.4 µM.

Take `CCOC(=O)c1cnc(-n2[nH]c3c(c2=O)CCCC3)[nH]c1=O`: the TGI with OVCAR-5 ovarian, in the test with TK-10 renal, in the test on COLO 205 colon, in the test with NCI/ADR-RES ovarian, with BT-549 breast and in the test on MDA-MB-231 breast was more than 100 µM in each case. For the same molecule, the TGI with SK-OV-3 ovarian, in the test on OVCAR-8 ovarian, with CAKI-1 renal, with 786-0 renal and with A498 renal was more than 100 µM in each case.

As to `Cc1cn(C2CC(N)C(C(=O)O)O2)c(=O)[nH]c1=O` (configuration not stated), the TGI in the test on OVCAR-5 ovarian, with TK-10 renal, in the test on COLO 205 colon, in the test on NCI/ADR-RES ovarian, in the test on BT-549 breast and with MDA-MB-231 breast was more than 100 µM in each case. For the same molecule, the TGI with SK-OV-3 ovarian, with OVCAR-8 ovarian, with CAKI-1 renal, in the test with 786-0 renal and in the test on A498 renal was more than 100 µM in each case.

With `O=C(c1ccccc1)c1sc2c(=O)c(C(=O)c3ccccc3)c(C(=O)c3ccccc3)sc2c(=O)c1C(=O)c1ccccc1`, the TGI with OVCAR-5 ovarian was more than 100 µM; with TK-10 renal, more than 100 µM; in the test on COLO 205 colon, more than 100 µM; in the test on NCI/ADR-RES ovarian it was 74.9 µM; with BT-549 breast, more than 100 µM; in the test on MDA-MB-231 breast, more than 100 µM. The TGI with SK-OV-3 ovarian was more than 100 µM; with OVCAR-8 ovarian it was more than 100 µM; in the test with CAKI-1 renal, 34.5 µM; in the test with 786-0 renal, more than 100 µM; with A498 renal it was more than 100 µM.

Regarding `Cc1ccc(S(=O)(=O)Oc2nc3ccccc3nc2N(S(=O)(=O)c2ccc(C)cc2)S(=O)(=O)c2ccc(C)cc2)cc1`, the TGI with OVCAR-5 ovarian, with TK-10 renal, in the test on COLO 205 colon, in the test on NCI/ADR-RES ovarian, in the test on BT-549 breast and in the test on MDA-MB-231 breast was more than 100 µM each time. In addition, the TGI with SK-OV-3 ovarian, with OVCAR-8 ovarian, in the test on CAKI-1 renal, in the test on 786-0 renal and in the test on A498 renal was more than 100 µM throughout.

With `N=C(N)SCc1cccc2c(=O)cc(-c3ccccc3)oc12`, the TGI was 41.8 µM in the test on OVCAR-5 ovarian; 26.8 µM in the test on TK-10 renal; 27.3 µM in the test on COLO 205 colon; more than 100 µM in the test with NCI/ADR-RES ovarian; 28.2 µM with BT-549 breast; 21.4 µM in the test with MDA-MB-231 breast. Further, the TGI with SK-OV-3 ovarian was 30.5 µM; in the test with OVCAR-8 ovarian it was 29.8 µM; in the test with CAKI-1 renal, 11.3 µM; with 786-0 renal it was 23.3 µM; in the test with A498 renal it was 35.8 µM.

Turning to `Cc1ccc(/C=C/C(=N/NC(=O)N/N=C(/C=C/c2ccc(C)cc2)C(C)(C)CN2CCCCC2)C(C)(C)CN2CCCCC2)cc1`, the TGI came out at 4.98 µM in the test with OVCAR-5 ovarian; 3.26 µM with TK-10 renal; 3.07 µM in the test with COLO 205 colon; 3.08 µM with NCI/ADR-RES ovarian; 4.21 µM in the test with BT-549 breast; 3.22 µM in the test with MDA-MB-231 breast. Also, the TGI came out at 3.32 µM with SK-OV-3 ovarian; 2.88 µM in the test with OVCAR-8 ovarian; 5.56 µM with CAKI-1 renal; 2.68 µM in the test with 786-0 renal; 3.12 µM in the test on A498 renal.

Regarding `COc1ccc(C(=O)/C=C/c2ccc(OCC(=O)N3CCN(c4ccccc4)CC3)cc2)cc1`, the TGI in the test on OVCAR-5 ovarian was more than 100 µM; in the test on TK-10 renal it was 89.2 µM; in the test on COLO 205 colon, more than 75.2 µM; with NCI/ADR-RES ovarian, more than 100 µM; with BT-549 breast, more than 77.3 µM; with MDA-MB-231 breast, more than 53.2 µM. Further, the TGI in the test on SK-OV-3 ovarian was 66 µM; in the test on OVCAR-8 ovarian it was more than 100 µM; in the test with CAKI-1 renal, more than 100 µM; in the test on 786-0 renal, more than 77.3 µM; with A498 renal, more than 93.9 µM.

Consider `CN(C)C(=O)Oc1ccc(-c2cn3cc(NC(=O)c4ccccc4)ccc3n2)cc1`, for which the TGI was more than 100 µM with OVCAR-5 ovarian; more than 100 µM in the test on TK-10 renal; 32 µM in the test on COLO 205 colon; more than 100 µM with NCI/ADR-RES ovarian; more than 100 µM in the test on BT-549 breast; more than 100 µM in the test with MDA-MB-231 breast. Moreover, the TGI with SK-OV-3 ovarian, in the test with OVCAR-8 ovarian, in the test with CAKI-1 renal, in the test with 786-0 renal and in the test with A498 renal was more than 100 µM each time.

Take `COc1cc(/C=C/c2cc(/C=C/c3ccc(O)c(OC)c3)oc(=O)c2)ccc1O`: the TGI was more than 100 µM with OVCAR-5 ovarian; more than 30 µM in the test with TK-10 renal; more than 73.2 µM in the test on COLO 205 colon; 26.1 µM in the test with NCI/ADR-RES ovarian; 12.2 µM with BT-549 breast; more than 96.2 µM in the test on MDA-MB-231 breast. The TGI in the test on SK-OV-3 ovarian was more than 65.2 µM; in the test on OVCAR-8 ovarian it was more than 100 µM; in the test on CAKI-1 renal, 16.1 µM; in the test on 786-0 renal, 34.9 µM; in the test on A498 renal it was 13.6 µM.

Turning to `COc1ccc(Cc2nccc3cc(OC)c(OC)cc23)cc1OC`, the TGI in the test on OVCAR-5 ovarian, in the test with TK-10 renal, in the test on COLO 205 colon, with NCI/ADR-RES ovarian, with BT-549 breast and in the test with MDA-MB-231 breast was more than 100 µM each time. Moreover, the TGI with SK-OV-3 ovarian, in the test on OVCAR-8 ovarian, in the test with CAKI-1 renal, in the test on 786-0 renal and in the test with A498 renal was more than 100 µM each time.
